Values belong to the compound of their own block, whether it stands above or below them.
Legend:
[1] = Drug concentration in C57BL/6 mouse plasma at 3 mg/kg, po measured after 3 hrs; type: ADME, organism-based
[2] = Bioavailability in cynomolgus monkey at 1 mg/kg, po and 0.1 mg/kg, iv measured upto 24 hrs by LC/MS/MS analysis; type: ADME, organism-based, Macaca fascicularis; settings: in vivo
[3] = Ratio of drug concentration in brain to plasma in C57BL/6 mouse at 3 mg/kg, po measured after 24 hrs; type: ADME, organism-based; settings: read-out: BPR
[4] = Drug concentration in C57BL/6 mouse plasma at 1 mg/kg, po measured after 24 hrs; type: ADME, organism-based
[5] = Drug concentration in C57BL/6 mouse brain at 3 mg/kg, po measured after 1 hr; type: ADME, organism-based; settings: read-out: Ct
[6] = In vivo inhibition of phosphorylation of S6 at serine 240/244 residues in C57BL/6 mouse brain at 30 mg/kg, po measured after 24 hrs by Western blotting analysis; type: organism-based
[7] = Drug concentration in C57BL/6 mouse brain at 1 mg/kg, po measured after 1 hr; type: ADME, organism-based; settings: read-out: Ct
[8] = In vivo inhibition of phosphorylation of S6 at serine 240/244 residues in C57BL/6 mouse brain at 3 to 10 mg/kg, po measured after 8 hrs by Western blotting analysis; type: organism-based; settings: dose 3-10 mg/kg
[9] = Drug concentration in C57BL/6 mouse brain at 1 mg/kg, po measured after 24 hrs; type: ADME, organism-based; settings: read-out: Ct
[10] = Ratio of drug concentration in brain to plasma in C57BL/6 mouse at 3 mg/kg, po measured at 3 hrs; type: ADME, organism-based; settings: read-out: BPR
[11] = Ratio of drug concentration in brain to plasma in C57BL/6 mouse at 30 mg/kg, po measured at 8 hrs; type: ADME, organism-based; settings: read-out: BPR
[12] = MRT(0 to t) in cynomolgus monkey at 1 mg/kg, po and 0.1 mg/kg, iv measured upto 24 hrs by LC/MS/MS analysis; type: ADME, organism-based, Macaca fascicularis; settings: in vivo
[13] = Drug concentration in C57BL/6 mouse plasma at 30 mg/kg, po measured after 8 hrs; type: ADME, organism-based
[14] = In vivo inhibition of phosphorylation of AKT at serine 473 residues in C57BL/6 mouse brain at 10 mg/kg, po measured after 8 hrs by Western blotting analysis; type: organism-based
[15] = Drug concentration in C57BL/6 mouse brain at 1 mg/kg, po measured after 3 hrs; type: ADME, organism-based; settings: read-out: Ct
[16] = Drug concentration in C57BL/6 mouse plasma at 1 mg/kg, po measured after 1 hr; type: ADME, organism-based
[17] = Drug concentration in C57BL/6 mouse brain at 1 mg/kg, po measured after 8 hrs; type: ADME, organism-based; settings: read-out: Ct
[18] = Ratio of drug concentration in brain to plasma in C57BL/6 mouse at 1 mg/kg, po measured at 1 hr; type: ADME, organism-based; settings: read-out: BPR
[19] = Drug concentration in C57BL/6 mouse brain at 10 mg/kg, po measured after 24 hrs; type: ADME, organism-based; settings: read-out: Ct
[20] = Cmax in cynomolgus monkey at 1 mg/kg, po measured upto 24 hrs by LC/MS/MS analysis; type: ADME, organism-based, Macaca fascicularis; design: time < 24 hrs, dose 1 mg/kg, route po; settings: in vivo
[21] = Ratio of drug concentration in brain to plasma in C57BL/6 mouse at 1 mg/kg, po measured at 8 hrs; type: ADME, organism-based; settings: read-out: BPR
[22] = Half life in cynomolgus monkey at 1 mg/kg, po and 0.1 mg/kg, iv measured upto 24 hrs by LC/MS/MS analysis; type: ADME, organism-based, Macaca fascicularis; settings: in vivo
[23] = Drug concentration in C57BL/6 mouse brain at 3 mg/kg, po measured after 24 hrs; type: ADME, organism-based; settings: read-out: Ct
[24] = Drug concentration in C57BL/6 mouse plasma at 3 mg/kg, po measured after 24 hrs; type: ADME, organism-based
[25] = Drug concentration in C57BL/6 mouse plasma at 1 mg/kg, po measured after 8 hrs; type: ADME, organism-based
[26] = AUC(0 to t) in cynomolgus monkey at 0.1 mg/kg, iv measured upto 24 hrs by LC/MS/MS analysis; type: ADME, organism-based, Macaca fascicularis; design: dose 0.1 mg/kg, time < 24 hrs, route iv; settings: in vivo
[27] = Volume of distribution at steady state in cynomolgus monkey at 1 mg/kg, po and 0.1 mg/kg, iv measured upto 24 hrs by LC/MS/MS analysis; type: ADME, organism-based, Macaca fascicularis; settings: in vivo
[28] = Drug concentration in C57BL/6 mouse brain at 10 mg/kg, po measured after 8 hrs; type: ADME, organism-based; settings: read-out: Ct
[29] = Ratio of drug concentration in brain to plasma in C57BL/6 mouse at 3 mg/kg, po measured at 8 hrs; type: ADME, organism-based; settings: read-out: BPR
[30] = Drug concentration in C57BL/6 mouse plasma at 10 mg/kg, po measured after 8 hrs; type: ADME, organism-based
[31] = Ratio of drug concentration in brain to plasma in C57BL/6 mouse at 10 mg/kg, po measured at 8 hrs; type: ADME, organism-based; settings: read-out: BPR
[32] = Drug concentration in C57BL/6 mouse brain at 3 mg/kg, po measured after 3 hrs; type: ADME, organism-based; settings: read-out: Ct
[33] = Drug concentration in C57BL/6 mouse brain at 30 mg/kg, po measured after 8 hrs; type: ADME, organism-based; settings: read-out: Ct
[34] = AUC(0 to t) in Beagle dog at 0.3 mg/kg, iv measured upto 24 hrs by LC/MS/MS analysis; type: ADME, organism-based, Canis lupus familiaris; design: time < 24 hrs, dose 0.3 mg/kg, route iv; settings: in vivo
[35] = Bioavailability in Beagle dog at 1 mg/kg, po and 0.3 mg/kg, iv measured upto 24 hrs by LC/MS/MS analysis; type: ADME, organism-based, Canis lupus familiaris; settings: in vivo
[36] = MRT(0 to t) in Beagle dog at 1 mg/kg, po and 0.3 mg/kg, iv measured upto 24 hrs by LC/MS/MS analysis; type: ADME, organism-based, Canis lupus familiaris; settings: in vivo
[37] = In vivo inhibition of phosphorylation of S6 at serine 240/244 residues in C57BL/6 mouse brain at 10 to 30 mg/kg, po measured after 1 to 3 hrs by Western blotting analysis; type: organism-based; settings: dose lower 10 mg/kg, time lower 1 hrs, dose upper 30 mg/kg, time upper 3 hrs
[38] = Half life in Beagle dog at 1 mg/kg, po and 0.3 mg/kg, iv measured upto 24 hrs by LC/MS/MS analysis; type: ADME, organism-based, Canis lupus familiaris; settings: in vivo
[39] = Volume of distribution at steady state in Beagle dog at 1 mg/kg, po and 0.3 mg/kg, iv measured upto 24 hrs by LC/MS/MS analysis; type: ADME, organism-based, Canis lupus familiaris; settings: in vivo
[40] = Phototoxicity against mouse BALB/3T3 clone A31 cells assessed as photo-irradiation factor incubated for 1 hr followed by irradiated with 5 J/cm^2 of light dose measured after 24 hrs by neutral red uptake assay; type: toxicity, cell-based; settings: balb/3t3 clone a31, 1 h
[41] = In vivo inhibition of phosphorylation of AKT at serine 473 residues in C57BL/6 mouse brain at 10 to 30 mg/kg, po measured after 24 hrs by Western blotting analysis; type: organism-based; settings: dose 10-30 mg/kg
[42] = In vivo inhibition of phosphorylation of AKT at serine 473 residues in C57BL/6 mouse brain at 10 to 30 mg/kg, po measured after 3 hrs by Western blotting analysis; type: organism-based; settings: dose 10-30 mg/kg
[43] = Cmax in cynomolgus monkey at 0.3 mg/kg, po measured upto 24 hrs by LC/MS/MS analysis; type: ADME, organism-based, Macaca fascicularis; design: dose 0.3 mg/kg, time < 24 hrs, route po; settings: in vivo
[44] = Clearance in C57BL/6 mouse at 1 mg/kg, iv and 3 mg/kg, ip measured upto 24 hrs by HPLC-MS analysis; type: ADME, organism-based; settings: in vivo

concentration at 3 h [1]: 2050 nM
bioavailability [2]: 110%
Kp at 24 h [3]: 0.84
concentration at 24 h [4]: 4 nM
concentration at 1 h [5]: 1400 nM
inhibition (INH) [6]: Active
concentration at 1 h [7]: 388 nM
inhibition (INH) [8]: Active
concentration at 24 h [9]: 7 nM
Kp at 3 h [10]: 0.45
Kp at 8 h [11]: 0.73
MRT last at 24 h [12]: 4.2 h
concentration at 8 h [13]: 632 nM
inhibition (INH) [14]: Active
concentration at 3 h [15]: 240 nM
concentration at 1 h [16]: 766 nM
concentration at 8 h [17]: 90 nM
Kp at 1 h [18]: 0.51
concentration at 24 h [19]: 130 nM
Cmax [20]: 468 nM
Kp at 8 h [21]: 0.37
half-life [22]: 5 h
concentration at 24 h [23]: 5 nM
concentration at 24 h [24]: 6 nM
concentration at 8 h [25]: 246 nM
AUC(0-t) at 24 h [26]: 0.34 µM·h
Vdss [27]: 3 L/kg
concentration at 8 h [28]: 230 nM
Kp at 8 h [29]: 0.29
concentration at 8 h [30]: 406 nM
Kp at 8 h [31]: 0.57
concentration at 3 h [32]: 930 nM
concentration at 8 h [33]: 462 nM
SMILES: C[C@@H]1COCCN1c1cc(N2CCOC[C@@H]2C)nc2[nH]c(-c3cscn3)nc12

AUC(0-t) at 24 h [34]: 0.147 µM·h
bioavailability [35]: 11%
MRT last at 24 h [36]: 0.9 h
inhibition (INH) [37]: Active
half-life [38]: 1.9 h
Vdss [39]: 4.3 L/kg
inhibition (INH) [41]: Not Active
inhibition (INH) [42]: Active
Cmax [43]: 13 nM
clearance [44]: 19 mL/min/kg
SMILES: C[C@@H]1COCCN1c1cc(N2CCOC[C@@H]2C)nc2[nH]c(-c3ccccn3)nc12
Activity [40]: 1

— ChEMBL document CHEMBL5331134, “Identification of Brain-Penetrant ATP-Competitive mTOR Inhibitors for CNS Syndromes” (J Med Chem, 2023)
